SMILES strings stand for the structures.

In assay [1] the target is T1, eLtaS (Staphylococcus aureus, UniProt Q2G093).
T1 construct: LtaS is a transmembrane protein with a large extracellular catalytic domain (denoted as eLtaS); His-tag; made in house; host or cells: E. coli (Rosetta; plasmid pProEX-eLtaS from strain ANG571)
As to the kind of experiment: Differential scanning fluorimetry (DSF) of eLtaS. It counts as binding, S. aureus. Here is the method:
DSF assays were performed on eLtaS using the CFX Connect RT-PCR system (Bio-rad) using the protocol described previously.[43] Solutions containing 5 μM eLtaS protein in DSF buffer (25 mM Trizma-HCl, pH 7.5, 100 mM NaCl, 10% glycerol, 1 mM EDTA, 20× SYPRO Orange) with compounds at the appropriate concentrations were dispensed onto 96-well PCR plates in triplicate. The plates were sealed with Microseal “B” PCR Plate Sealing Film (Bio-rad) prior to the DSF run. The emitted fluorescence at 568 nm was measured from 25 to 65 °C at a step ramp rate of 0.5 °C every 30 s. Prism GraphPad v.5 was used for curve fitting, and the melting temperature Tm for each curves was derived from the Boltzmann equation.
In general terms: DSF heats the sample and reads unfolding from a dye or from intrinsic fluorescence.

Assay [2] has as its system S. aureus (strain Newman). As to the kind of experiment: Non-lethal S. aureus lung infection mouse model. It counts as in vivo, BALB/c female mice. The following applies: single intranasal dose of 300 μg 3 h postinfection; lungs collected 24 h postinfection; 5 × 10^7 CFU intranasal. From the text: All in vivo experiments were done at the University of Liverpool under the UK Animals (Scientific Procedures) Act 1986 guidelines. The protocols were approved by the UK Home Office and by the University of Liverpool Animal Welfare and Ethics Committee. Six to eight week old BALB/c female mice (Charles River, UK) were used in the study after being left to acclimatize for a minimum of 7 days prior to experimentation. Mice were intranasally infected with 5 × 10^7 CFU of the S. aureus (strain Newman) in 50 μL of sterile phosphate-buffered saline (PBS). The bacterial dose was prepared by incubating 50 μL of an overnight culture in brain heart infusion (BHI) broth (Oxoid, Thermo Fisher Scientific, UK) into 5 mL of fresh BHI. Once the culture reached an OD600 = 2–3, the bacterial numbers were adjusted to the desired dose using sterile PBS. Three hours postinfection, mice were intranasally treated with either 50 μL of sterile PBS (control) or with 300 μg of compounds 1771 and compound 4 dissolved in 50 μL of sterile PBS. The final DMSO concentration was 5%, and the PBS control also contained 5% DMSO. Mice were culled 24 h postinfection; lungs were collected, homogenized, and serially diluted to determine CFU counts.[70] Significant differences were determined using the unpaired two-tailed Student t-test (p = 0.0013).

The subject of assay [3] is S aureus (strain Newman) biofilm. As to the kind of experiment: Biofilm assay (crystal violet). To be noted: 20 h, compound tested at 50, 25 and 12.5 μM. It is filed as cell-based. The method, then:
Biofilm assays were carried out on 96-well flat-bottom plates using the protocol described by […] et al.[48] Briefly, S aureus (strain Newman) was grown statically in 96-well plates at 37 °C in Tryptic soy broth supplemented with 0.5% glucose. Each well was additionally supplemented with either DMSO or compound 9 to concentrations of 50, 25, and 12.5 μM. After 20 h, the bacterial cultures from the plates were removed, and each well was rinsed with 150 μL of sterilized distilled water thrice. The plates were then incubated for 1 h at 60 °C. After that, the biofilm in each well was stained with 0.05% (w/v) of crystal violet solution using the protocol described by O'Toole.[67] Finally, the stained biofilms were solubilized with 30% acetic acid and quantified at OD600nm using the BMG Labtech CLARIOstar microplate reader.

Assay [4] has as its system MRSA strain COL. Kind of assay: Potentiation (checkerboard synergy) assay. It is filed as cell-based, S. aureus. Here is the method:
All the compounds tested in this study were dissolved in dimethyl sulfoxide (DMSO) at an initial stock concentration of 20 mM and stored at −20 °C. These compounds were tested for their antimicrobial activity using the microdilution broth method[66] following the protocol described by Richter et al.[30] Briefly, overnight cultures of S. aureus (strain Newman) grown at 37 °C in cation-adjusted Mueller Hinton II (MH2) broth were adjusted to an OD600nm of 0.6 before back-diluted with a factor of 1:2000 with the same broth. After that, 200 μL of the diluted bacterial culture were dispensed into each well of 96-well plates supplemented with the compounds to the desired concentrations. The plates were then sealed with a moisture membrane barrier and incubated statically for 20 h at 37 °C. After that, the OD600nm values of the cultures in each well were measured using a CLARIOstar microplate reader (BMG Labtech). The procedures for the potentiation assays were by large the same as described above with some variations. In such assays, MRSA strain COL was grown in the 96-well plates supplemented with different concentrations of compound 9 with methicillin, carbenicillin, or polymyxin B in a checkerboard format. Their synergistic effects were quantified by OD600nm measurements using a CLARIOstar microplate reader (BMG Labtech).

The test system of assay [5] is S. aureus (strain Newman). As to the kind of experiment: Thin-section TEM ultrastructure analysis. It counts as cell-based. The following applies: 5 μM compound 4 or 100 μM compound 9. Here is the method: The TEM imaging protocol was adapted from Garufi et al.[68]S. aureus (strain Newman) was grown in 20 mL of MH2 broth with either DMSO, 5 μM of compound 4 or 100 μM of compound 9 at 37 °C. When the control culture had reached an OD600nm ∼ 1, the cells were pelleted at 1520g and submitted to the Cambridge Advanced Imaging Centre for preimaging processing. Briefly, the cells were washed with water and fixed with 2% glutaraldehyde-4% paraformaldehyde in 0.1 M sodium cacodylate buffer (pH 7.2) for 2 h. After fixation, the cells were stained, dehydrated, and embedded in Spurr resin. The resin was cut into thin sections and viewed using a Tecnai G2 Transmission Electron Microscope at 200 kV with a bottom-mounted AMT CCD digital camera.

Setting [6] is: MRSA strain COL, compound 9 at subinhibitory 12.5 μM, checkerboard.

T1 sequence (Q2G093 218-646): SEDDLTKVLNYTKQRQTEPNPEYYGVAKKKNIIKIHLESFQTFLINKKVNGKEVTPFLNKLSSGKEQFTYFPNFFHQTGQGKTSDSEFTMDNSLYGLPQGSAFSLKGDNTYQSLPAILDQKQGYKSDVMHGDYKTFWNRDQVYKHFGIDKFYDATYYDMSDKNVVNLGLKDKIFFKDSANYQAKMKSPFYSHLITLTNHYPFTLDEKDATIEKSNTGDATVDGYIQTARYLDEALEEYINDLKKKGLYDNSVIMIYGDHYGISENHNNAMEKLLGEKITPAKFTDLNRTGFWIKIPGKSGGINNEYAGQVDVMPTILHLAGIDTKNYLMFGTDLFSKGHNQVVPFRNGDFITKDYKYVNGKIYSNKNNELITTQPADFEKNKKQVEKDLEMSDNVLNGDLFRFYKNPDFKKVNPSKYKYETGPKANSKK

In the case of `O=C(COC(=O)c1cn(-c2ccccc2)nc1-c1cccs1)Nc1nnc(-c2ccccc2)o1` [Compound 4], the “shift of the melting temperature of eLtaS” value in assay [1] (DSF, 5 μM eLtaS, across the range of concentrations tested) was “shifted the melting temperature of eLtaS more so than 1771”. Further, the “reduction in recoverable colonies from the lungs” value in assay [2] was 2 log.
With `S=C(Nc1ccc(Cl)cc1)Nc1ccc(Sc2nc3ccccc3[nH]2)cc1` [Compound 9], the “direct binding to eLtaS” value in assay [1] (using ITC and DSF, DSF at 100 μM compound) is given as “binds directly to eLtaS”. The “reduction in biofilm attachment” value in assay [3] came to 50%. For the same compound, in assay [4] (setting [6]), the “reduction of the minimum inhibitory concentration of carbenicillin” value is 32 fold and the “reduction of the minimum inhibitory concentration of methicillin” value was found to be 16 fold. For the same compound, the “increase in sensitivity toward polymyxin B” value in assay [4] (MRSA strain treated with compound 9, checkerboard) is on record as 4 fold. Moreover, the “ultrastructure of treated S. aureus (TEM)” value in assay [5] was “swollen S. aureus cells with a thickened peptidoglycan layer and cell division defects”.

These data come from PMC9131456, “Structure-Based Discovery of Lipoteichoic Acid Synthase Inhibitors” (Journal of Chemical Information and Modeling, 2022).
